# Data from patent publication US20240247048A1 (EMORY UNIVERSITY, priority 2021, published 2024).
# Test system: tumor infiltrating T cells in KPC-Luc tumors
# Assay: analysis of tumor infiltrating T cells in subcutaneous KPC-Luc tumors (flow cytometry, Nanostring, TCR sequencing, tetramer)
# Format: in vivo, mouse
# Experimental: FIGS. 19A, 19B, 19C, 19D, 19E, 19F, 19G, 19H and 19I show increased T cell activation and reduced frequency of Tregs in KPC.Luc tumors treated with a combination of VIP-R antagonist and anti-PD-1. Subcutaneous KPC.Luc tumors in C57BL/6 mice treated with ANT008 and/or anti-PD-1 (n=5 per treatment group), were analyzed via flow cytometry 10 days after treatment for proportion of (FIG. 19A) CD4+ and (FIG. 19B) CD8+ T cells expressing Ki67, IFN gamma, IL-4, PD-1 and Tim-3. (FIG. 19C) Representative flow plots showing the gating strategy used to quantify CD25+FoxP3+ Tregs. (FIG. 19D) Percentage of Tregs in tumors of the different treatment groups (n=5 per treatment group). Volcano plot showing differential expression of genes in T cells from (FIG. 19E) ANT008+ isotype IgG (IgG) vs scrambled peptide (Scram)+ isotype IgG, (FIG. 19F) scrambled peptide+anti-PD-1 vs scrambled peptide+isotype IgG and (FIG. 19G) ANT008+anti-PD-1 vs scrambled peptide+isotype IgG (n=3 mice per treatment group). Horizontal black line represents false discovery rate (FDR)<0.1. […] (FIG. 19H) Heat map showing gene expression changes in genes associated with TCR activation and co-stimulation. (FIG. 19I) TCR activation and co-stimulation pathway score between the T cells in tumors of mice from the different treatment groups. Statistical differences in FIGS. 19A, 19B, 19D and 19I were calculated via ANOVA followed by Dunnett's post-test. Error bars show mean±SEM *p<0.05, **p<0.001, ***p<0.0001.
# (FIG. 20A) Box and whiskers plot showing Shannon's Entropy in T cells of KPC.Luc tumors in each treatment group. (FIG. 20B) List showing TCR-0 amino acid sequences shared between samples of each treatment group and (FIG. 20C) the frequencies of the shared clones in each treatment group. Sequences are color coded to represent number of mice per group (n=4) that share the specific TCR-β clone. CD8+ in subcutaneous KPC.Luc tumors were stained with MuLV p15E-H2Kb tetramer after 10 days of treatment with ANT308 and/or anti-PD-1 (n=3 per treatment group) using the (FIG. 20D) gating strategy and (FIG. 20E) quantified. […] Statistical differences in a and e were calculated via ANOVA followed by Dunnett's post-test and in FIG. 20F and FIG. 20G were calculated using Log-rank test. […]
# Increased T cell activation in tumors of mice treated with a combination of VIP-R antagonist and anti-PD-1. To investigate whether inhibiting VIP-R signaling promotes T cell activation in vivo, the study analyzed tumor infiltrating T cells in subcutaneous KPC-Luc tumors for differences in activation markers. […]
sequence,measurement,setting,value
KPRRPYTDNYTRLRKQMAVKKYLNLILN [ANT008],genes upregulated in TIL (Nanostring),">4-fold change, FDR<0.1, FIG. 19e-19g",no genes significantly upregulated
same,frequency of Tregs within the PDAC tumors,"FIG. 19c, 19d",significantly decreased
same,levels of PD-1+ Tim-3- T cells in CD4+ and CD8+ subsets,"monotherapy, 10 days after treatment, FIG. 19a, 19b",increased
same,number of clones shared by at least 2 samples among top 50 highest frequency TCR clones,"n=4 per group, FIG. 20b",6
